# Experimental data published in US12496281B2, “Compounds for prevention and treatment of hemorrhage and vasculature instability” (Abrexa Pharmaceuticals, Inc., priority 2020, dated 2025).
# Experiments:
# [1] = tested on: thromboembolic middle cerebral artery occlusion (MCAO); assay: J147+tPA expanded study: infarct volume, intracerebral hemorrhage, mortality (Example 4A); assay type: in vivo, SD rats
# Procedure: Objective: To determine whether J147 can prevent tPA-associated brain hemorrhage and extend the treatment time window of tPA in a clinically relevant thromboembolic stroke model in rats. • J147 compound: Stock solution: 60 mg/ml DMSO, in 60 ul/vial, stored at −20° C. • Working solution: 3 mg/ml in 5% DMSO, 70% PEG200 and 25% normal saline, prepared prior to injection. • One vial stock solution was warmed at 37° C. and mixed with 1140 ul sterilized solution (PEG200: saline, 2.8:1). • Recombinant human tPA (Alteplase, 2.2 mg/vial): Reconstituted with 1.1 ml water (2 mg/ml). 10 mg/kg, 10% bonus injection, 90%30 min. via mini pump. A. Infarct Volume and Intracerebral Hemorrhage
# Methods: Male SD rats (280-300 g) were subjected to thromboembolic middle cerebral artery occlusion (MCAO) and treated with saline at 4 hours, tPA (tissue-type plasminogen activator; 10 mg/kg, IV) at 4 hours, and combined J147 (10 mg/kg, IV) plus tPA at 4 hours after onset of ischemia. Bederson score was examined prior to the sacrifice at 72 h after stroke. Infarct volumes, brain hemorrhage, and animal mortality were measured.
# MMP-9 = assay: Double immunohistochemistry for MMP-9 expression in the brain after thromboembolic stroke; assay type: in vivo, rats; conditions: 24 hours after stroke; tPA at 4 h alone or with J147; n=3 animals per group
# Procedure: MMPs, in particular MMP-9, play a critical role in the stroke-associated blood-brain barrier (BBB) disruption, hemorrhagic transformation and neuroinflammation after stroke. Double immunohistochemistry was performed to determine MMP-9 expression in the brain at 24 hours after stroke (FIG. 7A).
# (§1) Methods: At the indicated time point, animals were euthanized with CO2 and transcardially perfused with 200 mL ice-cold PBS (0.01 M, pH 7.4) followed by 4% paraformaldehyde (PFA). The brains were removed and post-fixed in 4% PFA solution for overnight at 4° C. Brain samples were then cryoprotected by immersion in 10%, 20%, and 30% gradient sucrose solutions for 48 h at 4° C. respectively. After that, the brains were embedded in optimal cutting temperature (OCT) compound. Coronal sections (15 um) were cut at 0.4 to 1.4 mm posterior to bragma using a cryostat and mounted on positively charged slides. […]
# (§2) For quantification, the number of immunoreactive vessels were counted in the ischemic boundary zone. All immunostaining data was analyzed by an investigator blinded to experimental groups using Image Pro plus software (version 5.1, Media Cybernetics, Inc.) and data are presented as the density of immunoreactive vessels relative to the imaged area (mm2) as described. Data were expressed as mean±standard error of the mean (SEM). […]
# [2] = tested on: neutrophil (MPO) infiltration; assay: Immunostaining of brain neutrophil (MPO) infiltration after thromboembolic stroke; assay type: in vivo, rats; conditions: poststroke; delayed tPA alone or with J147; n=3 animals per group
# Procedure: as §1, with “slides. Every twentieth coronal section for a total five sections was used for immunohistochemistry. The primary antibodies: IBa-1 (1:200, Wako), MPO (1:200, Abcam), MMP9 (1:100, R&D), EBA (endothelial barrier antigen, a marker for endothelium in the vessels, 1:500, Covance), fibrinogen (1:200, Dako), thrombocyte (1:200, lifespan) and PAI-1 (1:200, Novus Biologicals) were used.” for “slides.”
# as §2
# microglia (Iba-1) = assay: Immunostaining of microglia (Iba-1) expansion after thromboembolic stroke; assay type: in vivo, rats; conditions: poststroke; delayed tPA alone or with J147; n=3 animals per group
# Procedure: as §1, with “slides. Every twentieth coronal section for a total five sections was used for immunohistochemistry. The primary antibodies: IBa-1 (1:200, Wako), MPO (1:200, Abcam), MMP9 (1:100, R&D), EBA (endothelial barrier antigen, a marker for endothelium in the vessels, 1:500, Covance), fibrinogen (1:200, Dako), thrombocyte (1:200, lifespan) and PAI-1 (1:200, Novus Biologicals) were used.” for “slides.”
# as §2
# fibrin/fibrinogen = assay: Double immunofluorescence of intravascular fibrin/fibrinogen deposition in brain microvessels; assay type: in vivo; conditions: stroke rats; delayed tPA alone or with J147
# Procedure: as §1, with “slides. Every twentieth coronal section for a total five sections was used for immunohistochemistry. The primary antibodies: IBa-1 (1:200, Wako), MPO (1:200, Abcam), MMP9 (1:100, R&D), EBA (endothelial barrier antigen, a marker for endothelium in the vessels, 1:500, Covance), fibrinogen (1:200, Dako), thrombocyte (1:200, lifespan) and PAI-1 (1:200, Novus Biologicals) were used.” for “slides.”
# as §2
# platelets = assay: Double immunofluorescence of platelet (thrombocyte) accumulation in brain microvessels; assay type: in vivo; conditions: stroke rats; delayed tPA alone or with J147
# Procedure: as §1, with “slides. Every twentieth coronal section for a total five sections was used for immunohistochemistry. The primary antibodies: IBa-1 (1:200, Wako), MPO (1:200, Abcam), MMP9 (1:100, R&D), EBA (endothelial barrier antigen, a marker for endothelium in the vessels, 1:500, Covance), fibrinogen (1:200, Dako), thrombocyte (1:200, lifespan) and PAI-1 (1:200, Novus Biologicals) were used.” for “slides.”
# as §2
# [3] = tested on: platelet P-selectin (CD62P); assay: Flow cytometry of platelet activation (P-selectin) in whole blood after stroke; assay type: in vivo; conditions: whole blood at 24 hours after ischemia onset; vs saline-treated stroke rats
# Procedure: (§3) Elevated platelet activation and platelet-leukocyte interaction contribute importantly to pro-inflammatory and thrombotic events during ischemia-reperfusion injury after stroke. We used flow cytometry to analyze platelet activation and platelet-leukocyte aggregates in whole blood at 24 hours after ischemia onset (FIG. 9A).
# (§4) Methods: Blood was drawn into a heparinized capillary tube via the retro-orbital plexus at 24 h after stroke. Whole blood was diluted 1:10 with Flow Cytometry Staining Buffer (eBioscience) containing rat Fc block anti-rat CD32. For evaluation of platelet activation, sample was co-stained with the FITC mouse anti-rat CD42d (1:200, RPM.4) for platelets and PE/Cy7 mouse anti-rat CD62P (1:100, RMP-1) for P-selectin expression. For detection of platelet-leukocyte aggregates (PLA) formation, samples were co-stained with FITC mouse anti-rat CD42d (1:200, RPM.4), PE mouse anti-rat granulocytes (1:100, RP-1), APC mouse anti-rat CD11b (1:50, WT.5) and PE/Cy7 mouse anti-rat CD45 (1:100, OX-1). Isotype-matched control antibodies were used to differentiate non-specific background signal from specific antibody signals. The samples were analyzed on the BD Accuri™ C6 flow cytometer.
# [4] = tested on: platelet-leukocyte aggregates; assay: Flow cytometry of platelet-leukocyte aggregates in whole blood after stroke; assay type: in vivo; conditions: whole blood at 24 hours after ischemia onset; vs saline-treated stroke rats; n=3 rats per group
# Procedure: as §3, §4
# [5] = tested on: suture-type transient middle cerebral artery occlusion (MCAO) model; assay: Suture transient MCAO model, 2 h ischemia, reperfusion 24 h (Example 1); assay type: in vivo, Sprague Dawley rats; conditions: for infarct volume (TTC staining) relative to placebo: 24 h after reperfusion
# Procedure: In this model, J147 was administered i.v. at doses of 1 mg/kg, 10 mg/kg and 30 mg/kg of total body weight immediately after reperfusion (i.e., about 2 hours after ischemia onset). […] Maximum volume (iv., bolus)=5 ml/kg. (ip., bolus)=10 ml/kg. […] The Bederson scale is a global neurological assessment that was developed to measure neurological impairments following stroke. Tests include forelimb flexion, resistance to lateral push and circling behavior. In this case, a Bederson grading scale of 0-5 was used to assess behavioral deficits after reperfusion. This scoring scale is a simple way to reveal basic neurological deficits.
# [6] = tested on: suture MCAO-induced ischemia followed by reperfusion; assay: J147 dose-response, 2-hour suture MCAO followed by reperfusion, 72 h (Example 3); assay type: in vivo, SD rats
# Procedure: Objective: […] Methods: […] J147 compound (1.0, 10, 30 mg/kg) and vehicle were administered at 2 hours after onset of ischemia (FIG. 5). Bederson score was examined prior to the sacrifice at 72 h after stroke. Infarct volumes in TTC-stained brain coronal sections were measured.
# eMCAO, 4 μm blood clot = assay: J147 alone in embolic MCAO (eMCAO) model without tPA or reperfusion (Example 5); assay type: in vivo, SD rats; conditions: J147 alone 1 mg/ml or 10 mg/ml i.v., or 30 mg/ml i.p. two hours after stroke onset; no tPA, no reperfusion; 24 hours after stroke
# Procedure: In this example, an eMCAO experiment was performed to determine if J147 alone (i.e., without administration of TPA or other thrombolytic intervention) provided any therapeutic benefit for stroke in the absence of reperfusion caused by TPA.
# [7] = tPA 10 mg/kg IV at 4 hours, alone or with J147 10 mg/kg IV, 72 h after stroke
# [8] = J147 1.0, 10, 30 mg/kg at 2 hours after onset of ischemia, 72 h after stroke, dose-dependent, vs vehicle
Molecule,"brain hemorrhage / hemorrhagic transformation [1, 7]","brain infarction / infarct volume [1, 7]","mortality rate ([1]; treatment at 4 h after onset of ischemia, log-rank test, saline 25%) [%]","Death (number of rats) ([1]; treatment at 4 h after onset of ischemia, tPA n = 22, J147 plus tPA n = 17, saline 3 of 12)",MMP-9 expression on individual cells and brain microvessels (MMP-9),neutrophil (MPO positive cells) infiltration into the brain parenchyma [2],microglia expansion (number of Iba-1-positive cells) (microglia (Iba-1)),fibrin/fibrinogen deposited in downstream microvessels (fibrin/fibrinogen),platelets deposited in downstream microvessels (platelets),platelet activation (platelet P-selectin expression) [3],platelet-granulocyte (platelet-neutrophil) aggregates [4],infarct volume (TTC staining) relative to placebo ([5]; 1 mg/kg J147 iv),infarct volume (TTC staining) relative to placebo ([5]; 10 mg/kg J147 iv),infarct volume (TTC staining) relative to placebo ([5]; J147 intraperitoneally),"optimal effective dose ([5]; iv, immediately after reperfusion, doses tested 1, 10 and 30 mg/kg) [mg/kg]","infarct volumes [6, 8]","neurological deficit (Bederson score) [6, 8]","effective optimal dose ([6]; treatment of acute ischemic stroke in rats, doses tested 1.0, 10, 30 mg/kg) [mg/kg]","protection from stroke (infarct volume, TTC staining) (eMCAO, 4 μm blood clot)"
"tPA: Recombinant human tPA (Alteplase), tissue-type plasminogen activator; thrombolytic approved for the treatment of stroke",worsened,did not decrease,32,7,further increased,further augmented,no significant effect,markedly increased,markedly increased,no additional effect,no additional effect,–,–,–,–,–,–,–,–
COc1cccc(/C=N/N(C(=O)C(F)(F)F)c2ccc(C)cc2C)c1 [Compound J147],–,–,–,–,–,–,–,–,–,–,–,insignificant reduction,large reduction,modest reduction,10,significantly reduced,significantly reduced,10,fails to provide any significant protection
